Reference: US7875621B2, “Substituted 2-alkyl quinazolinone derivatives as PARP inhibitors” (Janssen Pharmaceutica NV, priority 2004, dated 2011)
One block for each compound: values may come before it.

Legend:
TANK-2 enzyme = target: T1, TANK-2 enzyme (Homo sapiens, UniProt Q9H2K2); assay: In vitro scintillation proximity assay (SPA) for TANK-2 inhibitory activity; assay type: biochemical; settings: auto-poly(ADP-ribosyl)ation, [3H]-NAD+, 96- or 384-well Ni Flash plates; read-out: in vitro SPA TANK-2 pIC50 (converted)
T1 construct: inferred from capture on Ni-coated flash plate; made in house
T1 sequence (Q9H2K2 1-1166): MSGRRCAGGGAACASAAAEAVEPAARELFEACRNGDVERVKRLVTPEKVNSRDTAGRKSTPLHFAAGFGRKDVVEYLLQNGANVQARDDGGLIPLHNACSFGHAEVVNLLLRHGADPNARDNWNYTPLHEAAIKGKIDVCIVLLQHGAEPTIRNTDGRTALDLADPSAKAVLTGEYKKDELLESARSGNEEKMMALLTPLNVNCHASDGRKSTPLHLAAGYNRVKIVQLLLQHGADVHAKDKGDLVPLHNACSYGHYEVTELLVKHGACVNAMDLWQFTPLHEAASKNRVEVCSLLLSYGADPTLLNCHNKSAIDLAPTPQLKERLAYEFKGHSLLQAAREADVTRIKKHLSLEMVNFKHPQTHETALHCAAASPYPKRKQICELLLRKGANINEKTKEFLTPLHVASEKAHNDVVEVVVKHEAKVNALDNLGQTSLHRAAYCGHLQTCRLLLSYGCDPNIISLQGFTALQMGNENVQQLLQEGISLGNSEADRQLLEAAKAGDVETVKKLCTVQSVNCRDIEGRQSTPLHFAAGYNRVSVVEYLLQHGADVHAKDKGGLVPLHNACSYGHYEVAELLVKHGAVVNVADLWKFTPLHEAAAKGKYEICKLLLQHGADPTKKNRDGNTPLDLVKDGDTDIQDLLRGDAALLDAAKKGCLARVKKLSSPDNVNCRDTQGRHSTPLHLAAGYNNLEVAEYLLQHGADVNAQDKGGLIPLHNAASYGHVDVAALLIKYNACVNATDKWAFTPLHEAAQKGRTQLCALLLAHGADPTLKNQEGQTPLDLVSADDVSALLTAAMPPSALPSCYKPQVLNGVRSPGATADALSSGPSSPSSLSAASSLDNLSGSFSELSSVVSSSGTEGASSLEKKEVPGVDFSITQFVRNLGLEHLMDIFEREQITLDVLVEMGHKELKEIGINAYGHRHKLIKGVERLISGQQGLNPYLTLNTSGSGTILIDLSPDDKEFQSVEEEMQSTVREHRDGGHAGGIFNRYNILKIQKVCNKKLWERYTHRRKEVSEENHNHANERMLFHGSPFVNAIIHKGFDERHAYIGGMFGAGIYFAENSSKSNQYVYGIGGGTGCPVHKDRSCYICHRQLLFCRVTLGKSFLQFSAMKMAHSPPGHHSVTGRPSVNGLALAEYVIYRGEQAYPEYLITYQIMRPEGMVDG
Procedure: In Vitro Scintillation Proximity Assay (SPA) for TANK-2 Inhibitory Activity
Compounds of the present invention were tested in an in vitro assay based on SPA technology with Ni Flash plates (96 or 384 well).
In principle, the assay relies upon SPA technology for the detection of auto-poly(ADP-ribosyl)ation of TANK-2 protein using [^3H]-nicotinamide adenine dinucleotide ([^3H]-NAD^+) as ADP-ribosyl donor.
A stock solution of [^3H]-NAD^+/NAD was made by adding 64.6 μl of [^3H]-NAD^+ (0.1 mCi/ml, supplier: Perkin Elmer) and 46.7 μl NAD-stock (10.7 mM, stored at −20° C., supplier Roche) to 1888.7 μl assay buffer (60 mM Tris/HCl, pH 7.4; 0.9 mM DTT; 6 mM MgCl2). The TANK-2 enzyme was produced as described in EP1238063. 60 μl of assay buffer, together with 1 μl of compound in DMSO, 20 μl of [^3H]-NAD^+/NAD and 20 μl of TANK-2 enzyme (final concentration 6 μg/ml) was added per well into a 96-well Ni-coated flash plate (Perkin Elmer). After incubation of the mixture for 120 min. at room temperature, the reaction was terminated by adding 60 μl of stopsolution (42.6 mg NAD in 6 ml H2O). The plates were covered with a plate sealer and placed in a TopCountNXT™ (Packard) for scintillation counting. Values were expressed as counts per minute (cpm). For each experiment, controls (containing TANK-2 enzyme and DMSO without compound), a blank incubation (containing DMSO but no TANK-2 enzyme or compound) and samples (containing TANK-2 enzyme and compound dissolved in DMSO) were run in parallel. All compounds tested were dissolved and eventually further diluted in DMSO. In first instance, compounds were tested at a concentration of 10^−5M. […] In each test, the blank value was subtracted from both the control and the sample values. The control sample represented maximal TANK-2 enzyme activity. For each sample, the amount of cpm was expressed as a percentage of the mean cpm value of the controls. When appropriate, IC50-values (concentration of the drug, needed to reduce the TANK-2 enzyme activity to 50% of the control) were computed using linear interpolation between the experimental points just above and below the 50% level. Herein the effects of test compounds are expressed as pIC50 (the negative log value of the IC50-value). As reference compounds, 3-aminobenzamide and 4-amino-1,8-naphtalimide were included to validate the SPA assay. Herein the assay was described using 96-well plates. In the assay using 384-well plates the same final concentrations were used and volumes were adapted.

colitis = settings: rats, colitis by intraluminal trinitrobenzene sulfonic acid in 50% ethanol; cited from earlier work
[1] = system: infarct size in the heart; settings: rabbits, cited from earlier work

IC50 (TANK-2 enzyme): > 10 µM
SMILES: O=C1NC(CCN2CCC(C(=O)c3ccc(F)cc3)CC2)Nc2ccccc21 (stereo not shown) [Compound 1]

SMILES: NC(=O)c1cccc(N)c1 [3-amino-benzamide]
effect on inflammatory response and distal colon (colitis): reduced the inflammatory response
reduction in infarct size in the heart ([1]; single injection 10 mg/kg, one minute before occlusion or before reperfusion): 32-42%

SMILES: Oc1cccc2c(O)nccc12 [1,5-dihydroxyisoquinoline]
reduction in infarct size ([1]; single injection 1 mg/kg): 38-48%
